Assay results from ChEMBL document CHEMBL1135852, “Inhibitors of NF-kappaB signaling: design and synthesis of a biotinylated isopanepoxydone affinity reagent” (2002).

Legend:
HEK293 = assay: Compound was tested for NF-kB inhibitory activity in HEK 293 cells; format: functional, Homo sapiens
HeLa = assay: Compound was tested for NF-kB inhibitory activity in Hela M cells; format: functional, Homo sapiens

Row | SMILES | Inhibitory activity (HEK293) | Inhibitory activity (HeLa)
1 | CC(C)(O)/C=C/C1=CC(=O)[C@@H]2O[C@@H]2[C@H]1O | 4 | <=0
2 | CC(=O)O[C@H]1C(/C=C/C(C)(C)O)=CC(=O)[C@@H]2O[C@@H]21 | <=0 | <=0
3 | CC(=O)O[C@@H]1C(/C=C/C(C)(C)O)=CC(=O)[C@@H]2O[C@H]12 | <=0 | <=0
4 | CC(C)=C[C@H](O)C1=C[C@@H](O)[C@@H]2O[C@@H]2C1=O [PANEPOXYDONE] | <=0 | <=0
5 | CC(=O)O[C@@H]1C(/C=C/C(C)(C)O)=C[C@@H](O)[C@@H]2O[C@@H]21 | 58 | >=100
6 | CC(C)(O)/C=C/C1=CC(=O)[C@@H]2O[C@@H]2C1=O | <=0 | <=0
7 | CC(=O)O[C@H]1C(/C=C/C(C)(C)O)=C[C@@H](O)[C@@H]2O[C@@H]21 | 49 | >=100
8 | CC(C)=C[C@@H](O)C1=C[C@@H](O)[C@@H]2O[C@@H]2C1=O | <=0 | <=0
9 | CC(C)(O)/C=C/C1=CC(=O)[C@@H]2O[C@@H]2[C@@H]1O |  | >=100
10 | CC(=O)O[C@H]1C(/C=C/C(C)(O)CCCCCCCCN2C(=O)c3ccccc3C2=O)=CC(=O)[C@@H]2O[C@@H]21 (stereo partly drawn) | <=0 | <=0
11 | CC(C)=CC(=O)C1=C[C@@H](O)[C@@H]2O[C@@H]2[C@@H]1O | 65 | 85
12 | CC(C)(O)/C=C/C1=C[C@@H](O)[C@@H]2O[C@@H]2C1=O | 63 | >=100
